The target in test [1] is T1, RAB1 (RabO) (Aspergillus nidulans, UniProt C8V3Z5).
T1 construct: gene ANIA_04281; GST fusion, expressed in E. coli, purified on glutathione-Sepharose 4B, GDP-loaded; GST not reported cut
The experiment in a line: GDP/mant-GDP exchange, Trp-to-mant FRET ([…] nm), exponential fit. It counts as binding. The settings on record: 5 uM GDP-loaded GST-RAB1, 50 uM mant-GDP, 10 mM MgCl2, 10 mM KCl, 2 mM DTT, 50 mM Tris-HCl pH 7.5, 30 C; no GEF.

For test [2], the target named is TRAPPII from tca17Δ cells (Aspergillus nidulans). The experiment in a line: negative-stain electron microscopy; Trs120-S-purified complexes eluted from S-agarose with S-peptide, concentrated, stained with 2% uranyl acetate; single particle 2D classification.

T1 sequence (C8V3Z5 entry or part of it): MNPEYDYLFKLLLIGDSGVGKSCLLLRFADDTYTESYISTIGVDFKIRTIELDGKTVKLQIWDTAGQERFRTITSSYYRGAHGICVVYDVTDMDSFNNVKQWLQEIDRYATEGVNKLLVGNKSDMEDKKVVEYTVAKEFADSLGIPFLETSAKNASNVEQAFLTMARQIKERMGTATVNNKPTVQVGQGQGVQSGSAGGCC

Turning to `Nc1nc2c(ncn2[C@@H]2O[C@H](COP(=O)(O)OP(=O)(O)O)[C@@H](O)[C@H]2O)c(=O)[nH]1` [GDP], the koff entry in test [1] is recorded as “Time courses of mant-GDP exchange for GDP were used to calculate the observed koff of GDP”.
Consider TRAPPII from tca17Δ cells (complex), for which the percent of particles that are TRAPPII dimers in test [2] came to 12%.

The record behind these values is publication PMC6946167, “Characterization of Aspergillus nidulans TRAPPs uncovers unprecedented similarities between fungi and metazoans and reveals the modular assembly of TRAPPII” (PLoS Genetics, 2019).
